Where “and” joins values, the source holds several entries; their conditions need not be identical. Equal entries are not always repeated. Where two headings read alike, the source gives them in different places.
Assays:
hERG = hERG (Homo sapiens, UniProt Q12809); test: CiPA IonChannelProfiler Cardiac Panel, QPatch
HPK1 = target: T1, HPK1 (Homo sapiens, UniProt Q92918); test: KINOMEscan binding (% Ctrl, Kd)
T1 construct: made in house; host or cells: E. coli BL21-derived host (T7 phage) or HEK-293
Description: Briefly, E. coli host derived from the BL21 strain were grown to log-phase and infected with kinase-tagged T7 phage and incubated with shaking at 32°C until lysis. The lysates were centrifuged and filtered to remove cell debris. The remaining kinases were produced in HEK-293 cells and subsequently tagged with DNA for qPCR detection. Streptavidin-coated magnetic beads were treated with biotinylated small molecule ligands to generate affinity resins for kinase assays. The liganded beads were blocked with excess biotin and washed to remove unbound ligand and to reduce non-specific phage binding. […] Selectivity Score (S-score) was a quantitative measure of compound selectivity. […] The binding constants (Kds) were also determined with a standard dose-response curve using the Hill equation and Levenberg-Marquardt algorithm [24, 25].

CYP2C19 = CYP2C19 (Homo sapiens, UniProt P33261); test: CYP inhibition in human liver microsomes; conditions: human liver microsomes
HepG2 cells [1] = test: Phospholipidosis and steatosis, high content screening; assay type: cell-based; set-up: key to Cell count, Trend (↑↓) / Nuclear size, Trend (↑↓) / DNA structure, Trend (↑↓) / Phospholipidosis, Trend (↑↓) / Steatosis, Trend (↑↓): ↑: increasing trend of response; ↓: decreasing trend of response
[2] = as above; assay type: cell-based; set-up: key to Cell count, Trend (↑↓) / Nuclear size, Trend (↑↓) / DNA structure, Trend (↑↓) / Phospholipidosis, Trend (↑↓) / Steatosis, Trend (↑↓): ↑: increasing trend of response; ↓: decreasing trend of response; conditions: human, HepG2 cells
10 enzyme targets = test: Enzyme and uptake assays; assay type: biochemical; conditions: 10 μM
Description: The purpose of this study was to provide a first step in preliminary safety assessments by providing early identification of potential off-target interactions for the optimization of safety margins. This study was conducted by Eurofins Cerep (France) and Eurofins Discovery (St. Charles, MO). R-VK4-116 was tested in enzyme and uptake assay with 10 enzyme targets (Figs 4 and 5 in S1 File), and cellular and nuclear receptor functional assays with 24 receptor targets (Figs 5 and 6 in S1 File). Compound enzyme inhibition effect was calculated as a % inhibition of control enzyme activity. The cellular agonist effect was calculated as a % of the control response to a known reference agonist for each target, and the cellular antagonist effect was calculated as a % inhibition of the control reference agonist response for each target.

[3] = Metabolic stability in liver microsomes; conditions: monkey, pH 7.4
HepG2 cells [4] = test: Mitochondrial toxicity (MT) assay panel; assay type: cell-based
Description: The assay results were presented as % cell viability. […] After each incubation, the cells were harvested and lysed to test the MT assay panel. The Zalcitabine (positive control) was also included in this assay (Fig 3 in S1 File). The levels of Mitochondrial Oxidative Phosphorylation (OXPHOS) complex 1 (NADH dehydrogenase; ab178011, lot #GR 3339973–1), complex 3 (CytC reductase; ab124537, lot #GR3276896-3), complex 4 (CytC Oxidase; ab179880, lot #GR3273194-1), and complex 5 (ATP synthase; ab124539, lot #GR3267780-4) in the cell lysates were determined using respective indirect ELISA as per manufacturer’s instructions. The total ATP content of the cell lysates was determined using an ATP assay kit (ab83355, lot #GR3314128-2, Abcam, Cambridge, MA). The Caspase 3 content of the cell lysates was determined using the Caspase-3 assay kit (ab39401, lot #GR3322733-1, Abcam, Cambridge, MA). In addition, the total glutathione content was determined using the total glutathione (GSSG/GSH) assay kit (STA-312, lot #09100263, Oxiselect™, San Diego, CA). Using an Oxiselect™ ROS/RNS assay kit (STA-347, lot #7081343, Cell Biolabs Inc. San Diego, CA), the ROS/RNS content of the cell lysates was determined by fluorescence assay.

CYP2C9 = CYP2C9 (Homo sapiens, UniProt P11712); test: CYP inhibition in human liver microsomes; conditions: human liver microsomes
CYP1A2 mRNA = test: CYP induction, mRNA, primary cultured human hepatocytes; assay type: in vitro ADME; conditions: read-out: CYP1A2 mRNA Fold Induction (fold of vehicle control)
Description: Rifampicin as a positive control and solvent (0.1% DMSO) vehicle control were also included. The acceptance criteria for CYP induction was ≥ 2-fold induction for significant CYP activity, while the acceptance criteria for CYP mRNA was ≥ 4-fold for significant CYP induction.

[5] = heat-inactivated liver microsomes
[6] = HepG2, 0.1, 1 and 10 μM, 7- and 14-day

Chain of CYP2C19 (P33261 whole entry): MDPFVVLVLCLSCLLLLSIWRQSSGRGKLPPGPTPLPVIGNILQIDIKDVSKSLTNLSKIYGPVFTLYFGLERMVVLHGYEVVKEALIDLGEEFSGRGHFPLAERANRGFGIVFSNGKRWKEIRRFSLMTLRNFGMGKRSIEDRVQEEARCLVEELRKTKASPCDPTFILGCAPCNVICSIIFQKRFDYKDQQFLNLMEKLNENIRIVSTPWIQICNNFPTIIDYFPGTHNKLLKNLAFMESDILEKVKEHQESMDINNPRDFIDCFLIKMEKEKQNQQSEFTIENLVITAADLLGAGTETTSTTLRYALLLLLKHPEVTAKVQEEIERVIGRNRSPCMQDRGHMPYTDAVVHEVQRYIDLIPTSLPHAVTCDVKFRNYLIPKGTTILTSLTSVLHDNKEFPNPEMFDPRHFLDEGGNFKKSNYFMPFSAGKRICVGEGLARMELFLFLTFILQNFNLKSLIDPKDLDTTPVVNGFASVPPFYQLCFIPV
Chain of CYP2C9 (P11712 whole entry): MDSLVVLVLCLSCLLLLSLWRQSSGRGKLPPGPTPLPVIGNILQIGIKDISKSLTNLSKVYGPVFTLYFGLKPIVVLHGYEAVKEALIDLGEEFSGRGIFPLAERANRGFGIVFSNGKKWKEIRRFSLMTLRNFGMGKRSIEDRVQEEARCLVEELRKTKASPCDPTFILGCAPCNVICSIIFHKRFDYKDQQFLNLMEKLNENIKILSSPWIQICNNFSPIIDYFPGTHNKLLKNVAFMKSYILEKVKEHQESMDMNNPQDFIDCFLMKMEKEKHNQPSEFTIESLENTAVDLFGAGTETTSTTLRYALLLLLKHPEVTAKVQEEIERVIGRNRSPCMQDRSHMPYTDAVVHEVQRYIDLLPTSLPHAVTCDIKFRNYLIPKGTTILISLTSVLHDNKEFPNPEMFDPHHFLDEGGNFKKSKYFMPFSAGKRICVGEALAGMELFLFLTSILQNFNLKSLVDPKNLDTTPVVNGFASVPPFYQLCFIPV
T1 sequence (Q92918 whole entry): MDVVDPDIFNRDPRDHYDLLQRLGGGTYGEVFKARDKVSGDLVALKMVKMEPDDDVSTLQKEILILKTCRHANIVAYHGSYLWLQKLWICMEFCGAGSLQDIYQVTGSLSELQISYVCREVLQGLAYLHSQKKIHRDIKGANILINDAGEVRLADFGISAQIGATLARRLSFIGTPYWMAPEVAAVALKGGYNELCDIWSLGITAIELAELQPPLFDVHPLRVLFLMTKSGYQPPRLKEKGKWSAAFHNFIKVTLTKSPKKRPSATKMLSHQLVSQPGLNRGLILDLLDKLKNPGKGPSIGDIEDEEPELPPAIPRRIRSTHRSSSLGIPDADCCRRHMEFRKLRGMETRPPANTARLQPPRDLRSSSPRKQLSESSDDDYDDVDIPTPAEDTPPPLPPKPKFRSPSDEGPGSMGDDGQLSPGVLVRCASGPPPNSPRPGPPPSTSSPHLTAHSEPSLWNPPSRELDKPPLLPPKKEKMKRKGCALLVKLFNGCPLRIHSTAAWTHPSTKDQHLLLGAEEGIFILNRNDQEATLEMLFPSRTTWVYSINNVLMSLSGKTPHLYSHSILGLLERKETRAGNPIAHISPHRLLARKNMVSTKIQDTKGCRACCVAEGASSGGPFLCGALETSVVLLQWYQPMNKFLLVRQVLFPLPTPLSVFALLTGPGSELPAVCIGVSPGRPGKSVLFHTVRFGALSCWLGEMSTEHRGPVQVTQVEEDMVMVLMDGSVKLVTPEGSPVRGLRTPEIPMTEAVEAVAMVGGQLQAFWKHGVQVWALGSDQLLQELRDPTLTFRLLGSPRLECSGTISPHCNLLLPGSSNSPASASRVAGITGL
Chain of hERG (Q12809 whole entry): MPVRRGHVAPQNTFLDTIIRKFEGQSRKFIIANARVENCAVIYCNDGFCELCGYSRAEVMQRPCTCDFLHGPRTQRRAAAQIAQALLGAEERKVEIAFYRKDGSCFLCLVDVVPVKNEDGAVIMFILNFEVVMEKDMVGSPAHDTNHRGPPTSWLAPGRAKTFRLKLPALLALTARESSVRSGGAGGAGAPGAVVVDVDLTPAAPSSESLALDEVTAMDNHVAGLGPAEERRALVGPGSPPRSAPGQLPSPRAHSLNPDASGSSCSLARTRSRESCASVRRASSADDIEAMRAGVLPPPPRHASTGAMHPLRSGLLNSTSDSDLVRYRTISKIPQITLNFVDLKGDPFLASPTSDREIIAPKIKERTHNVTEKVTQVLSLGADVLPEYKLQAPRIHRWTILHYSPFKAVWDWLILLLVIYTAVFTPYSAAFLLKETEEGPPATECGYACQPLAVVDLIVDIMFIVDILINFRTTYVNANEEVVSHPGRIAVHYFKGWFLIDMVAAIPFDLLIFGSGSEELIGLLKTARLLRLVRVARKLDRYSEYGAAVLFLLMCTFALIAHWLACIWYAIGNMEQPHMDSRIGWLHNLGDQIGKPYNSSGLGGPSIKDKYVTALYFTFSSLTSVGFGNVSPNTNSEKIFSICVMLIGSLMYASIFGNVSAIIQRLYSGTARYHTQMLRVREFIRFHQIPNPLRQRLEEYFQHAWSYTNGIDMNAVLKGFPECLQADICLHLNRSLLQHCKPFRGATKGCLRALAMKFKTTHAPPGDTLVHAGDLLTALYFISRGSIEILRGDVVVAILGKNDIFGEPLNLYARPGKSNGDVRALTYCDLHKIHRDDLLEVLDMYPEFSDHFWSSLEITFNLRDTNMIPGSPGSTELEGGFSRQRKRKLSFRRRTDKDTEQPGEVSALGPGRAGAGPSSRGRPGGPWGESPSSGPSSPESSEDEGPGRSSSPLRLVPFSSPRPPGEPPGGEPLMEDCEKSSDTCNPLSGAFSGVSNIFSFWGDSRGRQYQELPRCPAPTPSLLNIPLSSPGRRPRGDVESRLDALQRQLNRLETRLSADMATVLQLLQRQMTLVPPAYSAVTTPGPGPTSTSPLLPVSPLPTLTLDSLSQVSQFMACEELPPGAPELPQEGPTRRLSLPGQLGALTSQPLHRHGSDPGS

Compound: CCc1cc(Cl)c(OC)c(N2CCN(CC(O)CCNC(=O)c3cc4ccccc4[nH]3)CC2)c1 (centres unmarked) [R-VK4-116, N-(4-(4-(3-chloro-5-ethyl-2-methoxyphenyl)piperazin-1-yl)-3-hydroxybutyl)-1H-indole-2-carboxamide]
- inhibition at 10 µM (hERG; 10 μM): 54.6%
- inhibition at 100 µM (hERG; 100 μM): 82.3%
- inhibition at 10 µM (hERG; ≥10 μM): 54 to 82%
- Kd (HPK1; 11-point curve 0.001 to 10 μM, read-out: binding constant (Kd)): > 10 µM
- remaining binding at 1 µM (HPK1; read-out: %Control): < 35%
- remaining binding at 1 µM (HPK1; read-out: Gene (S-score with % control): HPK1): 29%
- CYP2C19 inhibition (CYP2C19; up to 100 μM): did not inhibit CYP significantly
- activity at 20 min, 0.1 µM (CYP2C19; human, probe mephenytoin): 102 ± 4.6%
- activity at 20 min, 0.3 µM (CYP2C19; human, probe mephenytoin): 96.2 ± 5%
- activity at 20 min, 1 µM (CYP2C19; human, probe mephenytoin): 97.3 ± 2.2%
- activity at 20 min, 3 µM (CYP2C19; human, probe mephenytoin): 95.9 ± 3.6%
- activity at 20 min, 10 µM (CYP2C19; human, probe mephenytoin): 99.6 ± 3.3%
- activity at 20 min, 30 µM (CYP2C19; human, probe mephenytoin): 96.7 ± 3.5%
- activity at 20 min, 60 µM (CYP2C19; human, probe mephenytoin): 95 ± 5.4%
- activity at 20 min, 100 µM (CYP2C19; human, probe mephenytoin): 99.7 ± 3.4%
- Phospholipidosis, Trend (↑↓) (HepG2 cells [1]): ↑
- Steatosis, Trend (↑↓) (HepG2 cells [1]): ↑
- Steatosis, MEC (HepG2 cells [1]; (NS) = not statistically significant): 14.2 μM and 14.2 (NS) μM
- AC50 ([2]; # AC50 greater than the maximum surviving concentration, (NS) = not statistically significant, read-out: Steatosis, AC50): > 100 µM
- AC50 ([2]; read-out: Cell count, AC50): > 100 µM
- AC50 ([2]; read-out: DNA structure, AC50): > 100 µM
- AC50 ([2]; read-out: Nuclear size, AC50): > 100 µM
- AC50 ([2]; read-out: Phospholipidosis, AC50): 10.7 µM
- enzyme inhibition effects or uptake (10 enzyme targets): did not show any enzyme inhibition effects or uptake
- remaining at 0 h, 1 μM [3, 5]: 100%
- remaining at 0 h, 10 μM [3, 5]: 100%
- remaining at 2 h, 1 μM [3, 5]: 90%
- remaining at 2 h, 10 μM [3, 5]: 89.9%
- remaining at 0 h, 1 μM ([3]; liver microsomes): 100%
- remaining at 0 h, 10 μM ([3]; liver microsomes): 100%
- remaining at 0.5 h, 1 μM ([3]; liver microsomes): 32%
- remaining at 0.5 h, 10 μM ([3]; liver microsomes): 60.1%
- remaining at 1 h, 1 μM ([3]; liver microsomes): 21.2%
- remaining at 1 h, 10 μM ([3]; liver microsomes): 46.5%
- remaining at 1.5 h, 1 μM ([3]; liver microsomes): 17.5%
- remaining at 1.5 h, 10 μM ([3]; liver microsomes): 42.1%
- remaining at 2 h, 1 μM ([3]; liver microsomes): 15%
- remaining at 2 h, 10 μM ([3]; liver microsomes): 39.7%
- OXPHOS complex 1, 3, 4, and 5 or total ATP levels (HepG2 cells [4]; [6]): No significant decrease
- caspase 3, or total glutathione levels (HepG2 cells [4]; [6]): no significant increase
- increase in ROS/RNS levels compared with the solvent control (HepG2 cells [4]; HepG2, 7-days, all three concentrations (0.1, 1, 10 μM)): 10–35%
- CYP2C9 inhibition (CYP2C9; up to 100 μM): did not inhibit CYP significantly
- activity at 20 min, 0.1 µM (CYP2C9; human, probe diclofenac): 89.5 ± 9.2%
- activity at 20 min, 0.3 µM (CYP2C9; human, probe diclofenac): 79 ± 2.7%
- activity at 20 min, 1 µM (CYP2C9; human, probe diclofenac): 80.9 ± 2.2%
- activity at 20 min, 3 µM (CYP2C9; human, probe diclofenac): 92.3 ± 10.1%
- activity at 20 min, 10 µM (CYP2C9; human, probe diclofenac): 91.5 ± 7.3%
- activity at 20 min, 30 µM (CYP2C9; human, probe diclofenac): 80.9 ± 0.9%
- activity at 20 min, 60 µM (CYP2C9; human, probe diclofenac): 81.8 ± 3.1%
- activity at 20 min, 100 µM (CYP2C9; human, probe diclofenac): 93.4 ± 8.1%
- fold induction at 48 h, 0.01 µM (CYP1A2 mRNA; Lot 336, 0.01 μM): 1.1
- fold induction at 48 h, 0.1 µM (CYP1A2 mRNA; Lot 336, 0.1 μM): 1.2
- fold induction at 48 h, 1 µM (CYP1A2 mRNA; Lot 336, 1 μM): 1.6
- fold induction at 48 h, 3 µM (CYP1A2 mRNA; Lot 336, 3 μM): 1.9
- fold induction at 48 h, 5 µM (CYP1A2 mRNA; Lot 336, 5 μM): 1.8
- fold induction at 48 h, 10 µM (CYP1A2 mRNA; Lot 336, 10 μM): 1.9
- fold induction at 48 h, 0.01 µM (CYP1A2 mRNA; Lot 348B, 0.01 μM): 1.1
- fold induction at 48 h, 0.1 µM (CYP1A2 mRNA; Lot 348B, 0.1 μM): 1.4
- fold induction at 48 h, 1 µM (CYP1A2 mRNA; Lot 348B, 1 μM): 1.3
- fold induction at 48 h, 3 µM (CYP1A2 mRNA; Lot 348B, 3 μM): 1.5
- fold induction at 48 h, 5 µM (CYP1A2 mRNA; Lot 348B, 5 μM): 1.6
- fold induction at 48 h, 10 µM (CYP1A2 mRNA; Lot 348B, 10 μM): 1.5
- fold induction at 48 h, 0.01 µM (CYP1A2 mRNA; Lot 399, 0.01 μM): 1.6
- fold induction at 48 h, 0.1 µM (CYP1A2 mRNA; Lot 399, 0.1 μM): 1.8
- fold induction at 48 h, 1 µM (CYP1A2 mRNA; Lot 399, 1 μM): 1.7
- fold induction at 48 h, 3 µM (CYP1A2 mRNA; Lot 399, 3 μM): 1.9
- fold induction at 48 h, 5 µM (CYP1A2 mRNA; Lot 399, 5 μM): 1.6
- fold induction at 48 h, 10 µM (CYP1A2 mRNA; Lot 399, 10 μM): 1.6
